Experimental data reported in paper PMC11850817 (Scientific Reports, 2025).
Like-named read-outs stand apart in the source and are kept apart here.

Experiments:
HT-29 = assay: MTT antiproliferative assay, HT-29; format: cell-based, human; conditions: read-out: IC50 HT-29
AsPC-1 = assay: MTT antiproliferative assay, AsPC-1; format: cell-based, human; conditions: read-out: IC50 AsPC-1
EBC-1 = assay: MTT antiproliferative assay, EBC-1; format: cell-based, human; conditions: read-out: IC50 EBC-1
MCF-7 = assay: MTT antiproliferative assay, MCF-7; format: cell-based, human; conditions: read-out: IC50 MCF-7
NIH3T3 = assay: MTT assay, NIH3T3 non-cancer cell line; format: cell-based; conditions: read-out: IC50 NIH3T3
Mia-Paca-2 = assay: MTT antiproliferative assay, Mia-Paca-2; format: cell-based, human; conditions: read-out: IC50 Mia-Paca-2
AsPC-1 cells [1] = assay: Cell cycle test, RNase/PI flow cytometry; format: cell-based, human; conditions: AsPC-1, 3, 10, 30, 50 µM, 48 h
NTRK2 (TrkB) = NTRK2 (TrkB) (Homo sapiens, UniProt Q16620); assay: Radiometric kinase assay; format: biochemical; conditions: read-out: Kinase inhibition (%) NTRK2 (TrkB)
AsPC-1 cells [2] = assay: Apoptosis by Hoechst 33,258 staining; format: cell-based, human; conditions: AsPC-1, 10 and 30 µM, 48 h
FLT1 (VEGFR1) = FLT1 (VEGFR1) (Homo sapiens, UniProt P17948); assay: Radiometric kinase assay; format: biochemical; conditions: read-out: Kinase inhibition (%) FLT1 (VEGFR1)
KDR (VEGFR2) = KDR (VEGFR2) (Homo sapiens, UniProt P35968); assay: Radiometric kinase assay; format: biochemical; conditions: read-out: Kinase inhibition (%) KDR (VEGFR2)
CDK2/cyclin A = CDK2/cyclin A (Homo sapiens, UniProt P24941); assay: Radiometric kinase assay; format: biochemical; conditions: for inhibition at 10 µM: read-out: Kinase inhibition (%) CDK2/cyclin A
PDGFRA (PDGFRα) = PDGFRA (PDGFRα) (Homo sapiens, UniProt P16234); assay: Radiometric kinase assay; format: biochemical; conditions: for inhibition at 10 µM: read-out: Kinase inhibition (%) PDGFRA (PDGFRα)
PDGFRB (PDGFRβ) = PDGFRB (PDGFRβ) (Homo sapiens, UniProt P09619); assay: Radiometric kinase assay; format: biochemical; conditions: read-out: Kinase inhibition (%) PDGFRB (PDGFRβ)
MET = MET (Homo sapiens, UniProt P08581); assay: Radiometric kinase assay; format: biochemical; conditions: read-out: Kinase inhibition (%) MET
FLT4 (VEGFR3) = FLT4 (VEGFR3) (Homo sapiens, UniProt P35916); assay: Radiometric kinase assay; format: biochemical; conditions: for inhibition at 10 µM: read-out: Kinase inhibition (%) FLT4 (VEGFR3)
AXL = target: T1, AXL (Homo sapiens, UniProt P30530); assay: Radiometric kinase assay; format: biochemical; conditions: read-out: Kinase inhibition (%) AXL
T1 sequence (P30530 26-894): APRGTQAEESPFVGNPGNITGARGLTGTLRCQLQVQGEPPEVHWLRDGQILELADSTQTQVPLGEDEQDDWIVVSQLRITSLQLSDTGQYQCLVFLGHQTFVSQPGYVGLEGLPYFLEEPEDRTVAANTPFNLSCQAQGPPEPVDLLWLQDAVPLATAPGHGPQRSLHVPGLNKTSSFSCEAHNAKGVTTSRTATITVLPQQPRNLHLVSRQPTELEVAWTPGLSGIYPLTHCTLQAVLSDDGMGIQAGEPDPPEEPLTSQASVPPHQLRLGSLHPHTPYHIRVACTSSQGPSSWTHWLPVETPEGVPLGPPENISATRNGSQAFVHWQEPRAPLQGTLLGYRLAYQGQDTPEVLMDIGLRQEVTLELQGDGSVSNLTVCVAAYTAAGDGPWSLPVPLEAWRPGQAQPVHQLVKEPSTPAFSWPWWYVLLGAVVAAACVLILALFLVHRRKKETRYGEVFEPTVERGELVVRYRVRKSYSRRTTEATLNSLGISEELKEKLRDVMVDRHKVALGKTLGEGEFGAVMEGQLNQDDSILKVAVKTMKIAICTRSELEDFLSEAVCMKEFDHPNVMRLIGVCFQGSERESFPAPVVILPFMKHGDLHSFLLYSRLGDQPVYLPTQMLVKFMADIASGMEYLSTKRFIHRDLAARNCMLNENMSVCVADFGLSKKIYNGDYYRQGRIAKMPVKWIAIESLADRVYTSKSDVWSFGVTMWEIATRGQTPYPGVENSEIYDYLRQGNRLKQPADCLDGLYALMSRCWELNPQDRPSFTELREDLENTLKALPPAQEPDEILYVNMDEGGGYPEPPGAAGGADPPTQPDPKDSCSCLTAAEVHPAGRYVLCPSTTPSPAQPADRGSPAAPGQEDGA

[3] = tested on: EBC-1, AsPC-1, Mia-Paca-2, HT-29, MCF-7 cancer cells; assay: MTT antiproliferative assay, cancer cell lines summarised; format: cell-based, human; conditions: MTT
FLT3 = FLT3 (Homo sapiens, UniProt P36888); assay: Radiometric kinase assay; format: biochemical; conditions: read-out: Kinase inhibition (%) FLT3
NTRK1 (TrkA) = NTRK1 (TrkA) (Homo sapiens, UniProt P04629); assay: Radiometric kinase assay; format: biochemical; conditions: read-out: Kinase inhibition (%) NTRK1 (TrkA)
[4] = MTT, 72 h, mean ± S.E.M. of 3–5 experiments

Sequence of FLT4 (VEGFR3) (P35916 25-1363): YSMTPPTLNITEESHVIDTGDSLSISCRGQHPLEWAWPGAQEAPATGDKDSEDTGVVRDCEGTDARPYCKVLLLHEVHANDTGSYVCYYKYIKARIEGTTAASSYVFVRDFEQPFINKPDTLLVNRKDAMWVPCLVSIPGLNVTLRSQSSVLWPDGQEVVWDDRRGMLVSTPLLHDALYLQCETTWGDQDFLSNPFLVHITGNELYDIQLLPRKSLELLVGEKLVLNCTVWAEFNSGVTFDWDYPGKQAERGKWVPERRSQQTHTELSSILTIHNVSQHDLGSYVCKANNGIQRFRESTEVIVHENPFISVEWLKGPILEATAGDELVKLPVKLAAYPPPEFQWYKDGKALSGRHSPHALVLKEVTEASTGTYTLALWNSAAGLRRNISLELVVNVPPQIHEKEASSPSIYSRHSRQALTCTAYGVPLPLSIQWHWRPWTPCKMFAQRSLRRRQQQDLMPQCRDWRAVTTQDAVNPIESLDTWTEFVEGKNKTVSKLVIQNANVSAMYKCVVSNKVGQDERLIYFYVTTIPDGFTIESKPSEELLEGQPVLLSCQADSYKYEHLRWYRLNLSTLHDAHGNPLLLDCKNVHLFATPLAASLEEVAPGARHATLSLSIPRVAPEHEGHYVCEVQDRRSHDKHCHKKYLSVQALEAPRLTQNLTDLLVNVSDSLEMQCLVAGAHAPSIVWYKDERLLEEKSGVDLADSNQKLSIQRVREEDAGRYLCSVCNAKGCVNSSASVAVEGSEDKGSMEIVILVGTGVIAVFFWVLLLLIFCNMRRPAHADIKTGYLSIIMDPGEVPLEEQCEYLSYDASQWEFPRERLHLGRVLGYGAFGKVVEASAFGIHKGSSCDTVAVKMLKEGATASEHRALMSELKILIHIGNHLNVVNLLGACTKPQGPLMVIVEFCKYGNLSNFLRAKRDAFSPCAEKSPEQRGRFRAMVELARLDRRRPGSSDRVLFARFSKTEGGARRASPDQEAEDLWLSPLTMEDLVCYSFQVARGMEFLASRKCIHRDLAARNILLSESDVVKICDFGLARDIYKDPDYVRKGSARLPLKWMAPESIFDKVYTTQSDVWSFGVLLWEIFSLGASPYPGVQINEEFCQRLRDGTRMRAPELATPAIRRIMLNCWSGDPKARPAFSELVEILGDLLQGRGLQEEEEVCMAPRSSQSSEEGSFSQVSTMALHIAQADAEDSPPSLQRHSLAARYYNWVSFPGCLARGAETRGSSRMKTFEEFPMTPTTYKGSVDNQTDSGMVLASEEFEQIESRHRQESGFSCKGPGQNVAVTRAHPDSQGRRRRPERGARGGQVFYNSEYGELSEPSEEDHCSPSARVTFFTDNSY
Sequence of PDGFRA (PDGFRα) (P16234 24-1089): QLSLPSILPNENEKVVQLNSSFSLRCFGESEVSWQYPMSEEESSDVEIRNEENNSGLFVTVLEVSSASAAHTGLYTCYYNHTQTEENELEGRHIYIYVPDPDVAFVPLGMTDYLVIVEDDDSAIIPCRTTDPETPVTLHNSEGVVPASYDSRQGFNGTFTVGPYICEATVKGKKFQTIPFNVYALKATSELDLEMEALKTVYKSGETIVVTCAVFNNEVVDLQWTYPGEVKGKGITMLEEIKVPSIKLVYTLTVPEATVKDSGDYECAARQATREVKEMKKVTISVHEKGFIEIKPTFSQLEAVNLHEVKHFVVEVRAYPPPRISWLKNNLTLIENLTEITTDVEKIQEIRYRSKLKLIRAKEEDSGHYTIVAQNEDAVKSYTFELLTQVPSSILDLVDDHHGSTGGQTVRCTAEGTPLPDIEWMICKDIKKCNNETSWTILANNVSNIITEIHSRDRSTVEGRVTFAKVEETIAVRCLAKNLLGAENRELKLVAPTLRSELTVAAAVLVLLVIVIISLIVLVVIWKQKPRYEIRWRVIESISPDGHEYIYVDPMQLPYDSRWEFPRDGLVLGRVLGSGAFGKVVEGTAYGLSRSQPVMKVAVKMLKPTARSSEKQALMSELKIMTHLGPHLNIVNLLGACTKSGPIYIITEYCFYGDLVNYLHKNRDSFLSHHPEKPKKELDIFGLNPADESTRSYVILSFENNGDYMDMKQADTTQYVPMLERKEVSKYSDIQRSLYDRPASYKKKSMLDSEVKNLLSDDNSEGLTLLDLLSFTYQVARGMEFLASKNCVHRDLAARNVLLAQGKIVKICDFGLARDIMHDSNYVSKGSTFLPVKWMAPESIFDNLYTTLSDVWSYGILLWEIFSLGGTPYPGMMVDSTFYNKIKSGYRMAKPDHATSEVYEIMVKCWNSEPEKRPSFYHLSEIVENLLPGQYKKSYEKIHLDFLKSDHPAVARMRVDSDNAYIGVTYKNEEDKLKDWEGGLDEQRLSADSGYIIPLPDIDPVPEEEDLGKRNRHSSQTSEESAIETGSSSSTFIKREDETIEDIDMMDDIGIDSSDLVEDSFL
Sequence of KDR (VEGFR2) (P35968 20-1356): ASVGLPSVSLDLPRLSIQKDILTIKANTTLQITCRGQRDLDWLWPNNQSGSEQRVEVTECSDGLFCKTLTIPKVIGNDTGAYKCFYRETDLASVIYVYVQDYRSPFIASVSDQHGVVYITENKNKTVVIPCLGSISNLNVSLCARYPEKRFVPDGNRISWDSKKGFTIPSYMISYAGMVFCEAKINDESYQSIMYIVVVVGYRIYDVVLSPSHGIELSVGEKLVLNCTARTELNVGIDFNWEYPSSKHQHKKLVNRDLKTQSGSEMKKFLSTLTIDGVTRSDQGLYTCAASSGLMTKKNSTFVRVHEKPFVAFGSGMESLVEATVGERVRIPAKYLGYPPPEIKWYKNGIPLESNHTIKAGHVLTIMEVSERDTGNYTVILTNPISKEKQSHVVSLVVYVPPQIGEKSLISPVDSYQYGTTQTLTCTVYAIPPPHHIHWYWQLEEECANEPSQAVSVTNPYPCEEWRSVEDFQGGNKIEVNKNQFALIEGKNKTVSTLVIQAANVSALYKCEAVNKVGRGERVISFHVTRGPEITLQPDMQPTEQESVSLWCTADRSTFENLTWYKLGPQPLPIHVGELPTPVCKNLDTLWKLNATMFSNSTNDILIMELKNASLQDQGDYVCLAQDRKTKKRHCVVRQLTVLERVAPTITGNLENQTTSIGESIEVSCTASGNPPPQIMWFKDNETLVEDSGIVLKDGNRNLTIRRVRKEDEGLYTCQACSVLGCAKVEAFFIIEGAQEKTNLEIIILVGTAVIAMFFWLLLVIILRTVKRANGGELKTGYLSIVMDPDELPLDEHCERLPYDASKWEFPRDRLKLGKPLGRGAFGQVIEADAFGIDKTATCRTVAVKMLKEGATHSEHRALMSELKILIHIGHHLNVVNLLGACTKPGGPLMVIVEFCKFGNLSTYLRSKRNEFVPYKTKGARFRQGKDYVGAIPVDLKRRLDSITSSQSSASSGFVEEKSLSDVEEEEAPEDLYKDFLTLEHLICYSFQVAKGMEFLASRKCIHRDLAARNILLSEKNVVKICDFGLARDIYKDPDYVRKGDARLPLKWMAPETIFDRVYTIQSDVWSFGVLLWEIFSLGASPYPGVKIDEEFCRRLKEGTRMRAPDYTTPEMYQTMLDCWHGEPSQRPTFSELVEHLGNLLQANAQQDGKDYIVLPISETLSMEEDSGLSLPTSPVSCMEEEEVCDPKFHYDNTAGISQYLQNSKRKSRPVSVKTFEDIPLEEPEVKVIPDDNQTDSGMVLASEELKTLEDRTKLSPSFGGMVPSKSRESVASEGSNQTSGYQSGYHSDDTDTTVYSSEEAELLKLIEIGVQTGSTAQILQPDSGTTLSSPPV
Sequence of MET (P08581 25-1390): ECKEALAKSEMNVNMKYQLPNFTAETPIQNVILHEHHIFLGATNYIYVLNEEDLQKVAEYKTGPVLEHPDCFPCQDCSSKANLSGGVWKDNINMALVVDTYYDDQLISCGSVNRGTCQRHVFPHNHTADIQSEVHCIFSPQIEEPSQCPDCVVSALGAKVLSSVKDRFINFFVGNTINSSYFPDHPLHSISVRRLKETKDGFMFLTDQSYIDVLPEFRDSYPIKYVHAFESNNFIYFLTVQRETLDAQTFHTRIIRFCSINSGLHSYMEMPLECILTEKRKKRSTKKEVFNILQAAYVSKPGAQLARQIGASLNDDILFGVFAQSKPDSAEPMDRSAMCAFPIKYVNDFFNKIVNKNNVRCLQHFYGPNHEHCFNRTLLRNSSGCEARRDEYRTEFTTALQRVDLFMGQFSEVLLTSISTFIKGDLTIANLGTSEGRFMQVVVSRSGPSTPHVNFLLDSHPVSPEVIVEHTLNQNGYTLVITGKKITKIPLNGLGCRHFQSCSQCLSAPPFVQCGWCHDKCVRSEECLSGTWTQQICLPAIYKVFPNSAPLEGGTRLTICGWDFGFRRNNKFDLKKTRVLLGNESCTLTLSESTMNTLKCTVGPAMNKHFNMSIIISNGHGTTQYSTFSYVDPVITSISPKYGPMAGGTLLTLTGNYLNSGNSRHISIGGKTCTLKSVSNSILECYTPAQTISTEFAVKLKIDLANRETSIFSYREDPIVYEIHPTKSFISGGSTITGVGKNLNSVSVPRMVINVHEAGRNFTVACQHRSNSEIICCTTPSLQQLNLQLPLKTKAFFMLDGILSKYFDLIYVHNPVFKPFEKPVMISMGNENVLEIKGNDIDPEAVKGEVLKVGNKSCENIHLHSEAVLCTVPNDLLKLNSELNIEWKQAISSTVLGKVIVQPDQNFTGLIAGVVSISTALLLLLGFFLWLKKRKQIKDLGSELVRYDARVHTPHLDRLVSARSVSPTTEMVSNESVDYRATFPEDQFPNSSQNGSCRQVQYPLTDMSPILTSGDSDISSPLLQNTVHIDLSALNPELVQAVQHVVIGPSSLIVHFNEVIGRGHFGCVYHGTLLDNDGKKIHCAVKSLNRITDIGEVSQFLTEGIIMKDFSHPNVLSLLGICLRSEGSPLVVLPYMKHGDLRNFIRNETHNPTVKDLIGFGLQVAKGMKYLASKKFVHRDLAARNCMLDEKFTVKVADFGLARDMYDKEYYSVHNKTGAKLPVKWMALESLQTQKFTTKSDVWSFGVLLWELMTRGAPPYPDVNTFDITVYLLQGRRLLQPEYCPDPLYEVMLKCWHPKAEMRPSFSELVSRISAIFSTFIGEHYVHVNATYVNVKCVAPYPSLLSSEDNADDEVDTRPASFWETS

SMILES	IC50 (HT-29; Homo sapiens, HT-29, 72 h) [µM]	IC50 (AsPC-1; Homo sapiens, ASPC1, 72 h) [µM]	IC50 (EBC-1; Homo sapiens, EBC-1, 72 h) [µM]	IC50 (MCF-7; Homo sapiens, MCF7, 72 h) [µM]	IC50 (NIH3T3; Mus musculus, NIH3T3, 72 h) [µM]	IC50 (Mia-Paca-2; Homo sapiens, MIA PaCa-2, 72 h) [µM]	other results
O=C1C=C(Nc2ccc(OCc3cn(Cc4ccc(F)cc4)nn3)cc2)C(=O)c2ccccc21 [Compound 4c, 2-((4-((1-(4-Fluorobenzyl)−1H-1,2,3-triazol-4-yl)methoxy)phenyl)amino) naphthalene-1,4-dione]	> 100	34.8 ± 15.3	13.7 ± 3.3	26.9 ± 0.2	20.1 ± 3.3	61 ± 6.6	–
Cc1ccc(Cn2cc(COc3ccc(NC4=CC(=O)c5ccccc5C4=O)cc3)nn2)cc1 [Compound 4i, 2-((4-((1-(4-Methylbenzyl)−1H-1,2,3-triazol-4-yl)methoxy)phenyl)amino) naphthalene-1,4-dione]	1.3 ± 0.5	5.4 ± 0.9	2.5 ± 0.3	13.9 ± 0.7	25.5 ± 6.1	20.6 ± 6.2	Effect on cell cycle distribution (S and G2/M phases) (AsPC-1 cells [1]): dose-dependently increased the number of cells in the S phase and simultaneously reduced the cells in G2/M phase; inhibition at 10 µM (NTRK2 (TrkB)): 19%; Apoptosis induction (nuclear morphology) (AsPC-1 cells [2]): characteristic features of apoptosis including densely packed chromatin within the nucleus as well as nuclear fragmentation; inhibition at 10 µM (FLT1 (VEGFR1)): -17%; inhibition at 10 µM (KDR (VEGFR2)): 28%; IC50 (CDK2/cyclin A): 11.3 ± 0.477 µM; inhibition at 10 µM (CDK2/cyclin A): 51%; IC50 (PDGFRA (PDGFRα)): 0.22 ± 0.009 µM; inhibition at 10 µM (PDGFRA (PDGFRα)): 74%; inhibition at 10 µM (PDGFRB (PDGFRβ)): 5%; inhibition at 10 µM (MET): 16%; IC50 (FLT4 (VEGFR3)): 1.336 ± 0.006 µM; inhibition at 10 µM (FLT4 (VEGFR3)): 87%; inhibition at 10 µM (AXL): 8%
O=C1C=C(Nc2ccc(OCc3cn(CCN4C(=O)c5ccccc5C4=O)nn3)cc2)C(=O)c2ccccc21 [Compound 4j, 2-(2-(4-((4-((1,4-Dioxo-1,4-dihydronaphthalen-2-yl)amino)phenoxy)methyl)−1H-1,2,3-triazol-1-yl)ethyl)isoindoline-1,3-dione]	> 50	> 100	> 50	> 100	–	> 100	Antiproliferative activity against cancer cell lines (in words) [3]: devoid of any antiproliferative potential against all cancer cells
CC(C)c1ccc(Cn2cc(COc3ccc(NC4=CC(=O)c5ccccc5C4=O)cc3)nn2)cc1 [Compound 4 g, 2-((4-((1-(4-Isopropylbenzyl)−1H-1,2,3-triazol-4-yl)methoxy)phenyl)amino) naphthalene-1,4-dione]	4.9 ± 0.9	12.8 ± 2.9	2 ± 0.5	22.3 ± 3.8	24.5 ± 5.2	45 ± 8.2	inhibition at 10 µM (FLT3): -2%; inhibition at 10 µM (KDR (VEGFR2)): -10%; inhibition at 10 µM (NTRK1 (TrkA)): 6%; inhibition at 10 µM (CDK2/cyclin A): 1%; inhibition at 10 µM (PDGFRA (PDGFRα)): 29%; inhibition at 10 µM (MET): -11%; inhibition at 10 µM (FLT4 (VEGFR3)): 9%
N.N.[Cl][Pt][Cl] [Cisplatin, reference compound]	–	–	–	–	–	–	IC50 (HT-29; [4]): 43.3 ± 17.3 µM; IC50 (AsPC-1; [4]): 5.4 ± 0.6 µM; IC50 (EBC-1; [4]): 24 ± 5.5 µM; IC50 (MCF-7; [4]): 43.1 ± 1.9 µM; IC50 (NIH3T3; MTT, 72 h, non-cancer cell line, mean ± S.E.M.): 8.3 ± 1.4 µM; IC50 (Mia-Paca-2; [4]): 22.1 ± 6.2 µM
COc1cccc2c1C(=O)c1c(O)c3c(c(O)c1C2=O)C[C@@](O)(C(=O)CO)C[C@@H]3O[C@H]1C[C@H](N)[C@H](O)[C@H](C)O1 [Doxorubicin, reference compound]	0.6 ± 0.2	1.73 ± 0.2	0.5 ± 0.1	0.137 ± 0.0063	0.013 ± 0.0021	0.0881 ± 0.0526	–
COc1cc2nccc(Oc3ccc(NC(=O)C4(C(=O)Nc5ccc(F)cc5)CC4)cc3)c2cc1OC [Cabozantinib, reference compound]	3.7 ± 0.4	21.3 ± 2.03	0.06 ± 0.01	17.8 ± 2.4	–	7.4 ± 0.6	–
O=C1C=C(Nc2ccc(OCc3cn(Cc4ccc(Cl)cc4)nn3)cc2)C(=O)c2ccccc21 [Compound 4d, 2-((4-((1-(4-Chlorobenzyl)−1H-1,2,3-triazol-4-yl)methoxy)phenyl)amino) naphthalene-1,4-dione]	3.1 ± 0.4	20.8 ± 6.8	1.9 ± 0.3	15.9 ± 4.6	14.4 ± 1.9	21.3 ± 3.6	–
CC(C)(C)c1ccc(Cn2cc(COc3ccc(NC4=CC(=O)c5ccccc5C4=O)cc3)nn2)cc1 [Compound 4 h, 2-((4-((1-(4-(Tert-butyl)benzyl)−1H-1,2,3-triazol-4yl)methoxy)phenyl)amino) naphthalene-1,4-dione]	2.5 ± 0.7	16.2 ± 2	8.7 ± 1.3	20.3 ± 0.2	46.7 ± 3.2	31.3 ± 3.3	–
O=C1C=C(Nc2ccc(OCc3cn(Cc4cccc(Cl)c4)nn3)cc2)C(=O)c2ccccc21 [Compound 4f, 2-((4-((1-(3-Chlorobenzyl)−1H-1,2,3-triazol-4-yl)methoxy)phenyl)amino) naphthalene-1,4-dione]	1.9 ± 0.4	10.5 ± 2.6	2.3 ± 0.4	> 100	29.8 ± 7.3	42.1 ± 12.6	–
